From US20220193111A1, “Method of Treatment” (The University Court of the University of Edinburgh, priority 2018, published 2022)

B1: miR-148b mimic: miR-148b mimic oligonucleotide; in a particular embodiment has SEQ ID NO: 1, the human precursor miR-148b sequence (nucleic acid)
chain: CAAGCACGAUUAGCAUUUGAGGUGAAGUUCUGUUAUACACUCAGGCUGUGGCUCUCUGAAAGUCAGUGCAUCACAGAACUUUGUCUCGAAAGCUUUCUA
modifications: listed as RNA, chemistry not given here

Tested on: HUVECs
Test: Gene (qPCR) and protein (Western blot) expression in transfected HUVECs
Format: cell-based, human
Protocol: Human umbilical vein ECs (HUVECs; Lonza) were grown in EGM-2 (comprising EBM-2 with growth factors and other supplements) with 2% Foetal Bovine Serum. Confluent HUVECs were treated with 10 ng/ml TNF-α, IL-1β, TGFβ2 (PeproTech); medium and cytokines were changed every two days. SB431542 (Tocris) has been used at the dose of 10 μM. HEK293T cells (ATCC®, CRL-11268) were cultured in D-MEM with 10% FBS (Life Technologies).
Total RNA was extracted using miReasy kit (Qiagen). Real-time quantification to measure miRNAs was performed with the TaqMan miRNA reverse transcription kit and miRNA assay (Life Technology) using Lightcycler 480 (Roche). miRNAs expression was normalized to the U6 […] (snRU6). For mRNA analysis, cDNA was amplified by quantitative real-time PCR (qPCR) and normalized to 18S ribosomal RNA. Each reaction was performed in triplicate. Quantification was performed by the 2^−ΔΔCt method^52. qPCR was used to measure the expression of miR-148b (miR-148b-3p Thermo Fisher Scientific, Cat. #4426961), snRU6 (ThermoFisher Scientific, Cat. #4331182), TGFβ2, SMAD2, CD31, VE-Cadherin, COL1A1, α-SMA, SLUG, VIM, SNAIL, TWIST, ZEB1/2 and 18S rRNA. Primers are pre-designed from Sigma (KiCgStart™ Primers).
Lipofectamine RNAiMAX (Thermo Fisher Scientific) was used to transfect HUVECs with miR-148b mimic, anti-miR-148b and mimic or anti-miR control (25 nM and […], respectively final concentration) or with siRNA targeting SMAD2 (20 nM final concentration), according to the manufacturer's instructions. jetPEI-HUVECs (Polyplus) was used to transfect HUVECs with DNA plasmids. The following functional assays were performed: BrdU incorporation assay using Cell Proliferation colorimetric assay (Roche); Matrigel assay with HUVECs was performed as previously described using BD Matrigel Basement Membrane Matrix (BD Biosciences)^53.
Proteins were extracted from cultured cells or muscles by using ice-cold buffer A (50 mM Hepes, 150 mM NaCl, 1 mM EDTA, 1 mM EGTA, 25 mM NaF, 5 mM NaPPi, 1%Triton, 1% NP40, 1 mM Na3VO4, 0.25% sodium deoxycholate, 0.5 mM Na-orthovanadate, 1 mM benzamidine, 0.1 mM phenylmethylsulfonyl fluoride). Protein concentration was determined using the Bio-Rad Protein Assay Reagent (Bio-Rad Laboratories, UK). Detection of proteins by Western blot analyses was done following separation of whole cell extracts (20 μg) on SDS-polyacrylamide gels. Proteins were transferred to nitrocellulose membranes and probed with the following antibodies: TGFβ2 (Abcam, ab36495, 1:1000), SMAD2 (SantaCruz Biotechnology, Santa Cruz, Calif., USA; #3102, 1:1000), p-SMAD2 (465/467) (Cell Signaling; #3108, 1:1000); CD31 (Abcam., 1:1000), VE-Cadherin (Abcam, ab33168, 1:1000), COL1A1 (Abcam, ab138492, 1:200), FSP-1 (5100A4; Abcam, ab41532, 1:1000), SLUG (Abcam, ab27568, 1:1000), β-actin (Abcam, ab16039, 1:4000), HDAC3 (GeneTex GTX113303, 1:1000) and GAPDH (GeneTex, GT239, 1:1000) (both used as loading control). For detection, the inventors used secondary antibodies conjugated to horseradish peroxidase which were rabbit anti-mouse (Abcam, ab97046, 1:5000) and goat anti-rabbit (Abcam, ab6721, 1:10000). Detection was developed by chemiluminescence reaction (ECL) (Immunoblot, Millipore, 23225).

Row | Molecule | expression of target genes TGFB2 and SMAD2 (mRNA) (anti-miR 75 mM, 48 hrs) | CD31 and VE-cadherin (Western blot) (anti-miR, 48 hrs) | SLUG (Western blot) (anti-miR, 48 hrs) | SLUG expression (mRNA) (anti-miR, 48 hrs) | TGFB2, SMAD2 and its phosphorylation (Western blot) (anti-miR, 48 hrs) | expression of CD31 and VE-Cadherin (mRNA) (anti-miR, 48 hrs) | expression of COL1A1 and FSP-1 (mRNA) (anti-miR, 48 hrs) | mesenchymal markers COL1A1, FSP-1 (Western blot) (anti-miR, 48 hrs) | α-SMA or vimentin (VIM) levels (anti-miR, 48 hrs) | target gene (TGFB2, SMAD2) mRNA (mimic 25 nM) | target gene (TGFB2, SMAD2) protein levels (mimic 25 nM, Western blot) | expression of ACVR1 and ROCK1 (mimic transfection)
1 | anti-miR-148b: miR-148b inhibitor oligonucleotide; suitable inhibitor: hsa-miR-148b-3p miRCURY LNA inhibitor, CAAAGTTCTGTGATGCACTG (SEQ ID NO: 6) (commercial miRCURY LNA inhibitor, LNA positions not given here) | increased | suppression | up-regulation | strong up-regulation | upregulation | decreased | increased | appearance | without detectable changes | – | – | –
2 | B1 | – | – | – | – | – | – | – | – | – | reduced | reduced | did not affect
